# Data taken from US6136835A (priority 1999, dated 2000).
# “And” between values parts separate entries of the source, which are not always exact repeats. Equal values may be shown once. Read-outs that look alike come from different tables or passages of the source.
# What was measured:
# murine melanoma (B16) = conditions: for % Increase in survival time relative to control (100%) / Survivors in cancer model: mouse, in vivo
# Method: In an in vivo mouse model for murine melanoma (B16) fluconazole was tested alone and in combination with adriamycin (doxorubicin) at various doses.
# [1] = tested on: human influenza virus, strain AT2/Taiwan/1/64; experiment: Anti viral evaluation with human influenza virus in mice; type: in vivo; conditions: 21 days observation, virus dose ~90% lethality
# [2] = tested on: lung, non-small cell cancer; experiment: In Vitro Human Tumor Colony Forming Units Test, lung, non-small cell; type: cell-based; conditions: 50.0 μg/ml, continuous exposure
# Method: (§1) Solid tumors removed from patients are minced into 2 to 5 mm fragments and immediately placed in McCoy's Medium 5A plus 10% heat inactivated newborn calf serum lus 1% penicillin/streptomycin. Within 4 hours, these solid tumors are mechanically disassociated with scissors, forced through No. 100 stainless steel mesh, through 25 gauge needles, and then washed with McCoys medium as described above. Ascitic, pleural, pericardial fluids and bone marrow are obtained by standard techniques. The fluid or marrow is placed in sterile containers containing 10 units of preservative free heparin per ml. of malignant fluid or marrow. After centrifugation at 150× g for 10 minutes, the cells are harvested and washed with McCoy's medium plus 10% heat inactivated calf serum. The viability of cell suspensions is determined on a hemocytometer with trypan blue.
# (§2) Cells to be cloned are suspended in 0.3% agar in enriched CMRL1066 supplemented with 15% heat inactivated horse serum, penicillin (100 units/ml), streptomycin ([…]), glutamine (2 mM ), insulin (3 units/ml), asparagine (0.6 mg/ml), and HEPES buffer (2 mM ). For the continuous exposure test each compound is added to the above mixture. […] If there is <30% cells in the positive control when compared to the untreated control, the test is evaluated. […]
# influenza = experiment: in vitro model for influenza
# [3] = tested on: solid tumors removed from patients; experiment: In Vitro Human Tumor Colony Forming Units Test; type: cell-based; conditions: for effective against tumors (number of tumors): continuous exposure or single dose experiment
# Method: as §1
# Cells to be cloned are suspended in 0.3% agar in enriched CMRL1066 supplemented with 15% heat inactivated horse serum, penicillin (100 units/ml), streptomycin ([…]), glutamine (2 mM ), insulin (3 units/ml), asparagine (0.6 mg/ml), and HEPES buffer (2 mM ). For the continuous exposure test each compound is added to the above mixture. Cells are placed in 35 mm petri dishes in a top layer of agar over an underlayer of agar to prevent growth of fibroblasts. Three plates are prepared for each data point. The plates are placed in a 37° C. incubator, and are removed on day 14 for counting of the number of colonies in each plate. The number of colonies (defined as 50 cells) formed in the 3 compound treated plates is compared to the number of colonies formed in the 3 control plates, and the percent colonies surviving at the concentration of compound can be tabulated. Three positive control plates are used to determine survival rate. Orthosodium vanadate at 200 μg/ml is used as the positive control. If there is <30% cells in the positive control when compared to the untreated control, the test is evaluated. […]
# Rhinovirus = conditions: in vivo Rhinovirus
# ovarian cancer = experiment: In Vitro Human Tumor Colony Forming Units Test, ovarian; type: cell-based; conditions: 50.0 μg/ml, continuous exposure
# Method: as §1, §2
# chronic hepatitis C = conditions: interferon with or without ribavarin; cited from earlier work
compound,measurement,setting,value
COc1cccc2c1C(=O)c1c(O)c3c(c(O)c1C2=O)C[C@@](O)(C(=O)CO)C[C@@H]3O[C@H]1C[C@H](N)[C@H](O)[C@H](C)O1 [Adriamycin],Toxic deaths,"murine melanoma (B16); fluconazole 0, adriamycin 2 mg/kg",0
same,Toxic deaths,"murine melanoma (B16); fluconazole 0, adriamycin 3 mg/kg",0
same,Toxic deaths,"murine melanoma (B16); fluconazole 0, adriamycin 4 mg/kg",0
same,% Increase in survival time relative to control (100%),murine melanoma (B16),cures occurred
same,Survivors in cancer model,murine melanoma (B16),6/10 and 8/10 and 10/10
NC12CC3CC(CC(C3)C1)C2 [Amantadine],Percent Mortality,[1]; 75 mg/kg oral,0%
"OC(Cn1cncn1)(Cn1cncn1)c1ccc(F)cc1F [Fluconazole, 2-(2,4-difluorophenyl)-1,3-bis(1H-1,2,4-triazol-1-yl)propan-2-ol]","effectiveness against lung, non-small cell cancer",[2],effective
same,activity in an in vitro model for influenza,influenza,did not show activity
same,effective against tumors (number of tumors),[3]; 0.5 μg/ml,0/3
same,effective against tumors (number of tumors),[3]; 5.0 μg/ml,0/13
same,tumors with <50% survival (over all),"[3]; 50.0 μg/ml, continuous exposure",4/13
same,Toxic deaths,"murine melanoma (B16); fluconazole 175 mg/kg, adriamycin 0",0
same,Toxic deaths,"murine melanoma (B16); fluconazole 350 mg/kg, adriamycin 0",0
same,Toxic deaths,"murine melanoma (B16); fluconazole 700 mg/kg, adriamycin 0",0
same,% Increase in survival time relative to control (100%),murine melanoma (B16),120% and 116% and 117%
same,Survivors in cancer model,murine melanoma (B16),0
same,Percent Mortality,[1]; 350 mg/kg oral,0%
same,Percent Mortality,[1]; 700 mg/kg oral,30%
same,activity in screening test,Rhinovirus,Nor was it active
same,effectiveness against ovarian cancer,ovarian cancer,effective
interferon,response rate,chronic hepatitis C,about 25%
